Read-outs that look alike come from different tables or passages of the source.
Columns and labels:
[1] = test system: IL-6, IL-10 and TNFα secretion; test: Ex vivo LPS-B5-triggered cytokine secretion in bronchoalveolar lavage cells of treated mice; design: species or system mouse
Description: We checked whether plitidepsin inhibits the LPS-trigged cytokine secretion in alveolar macrophages. To that end mice were injected i.v. with plitidepsin (1 mg/kg) or vehicle and 12 hours after administration bronchoalveolar lavage fluid (BAL) was collected. Cells were plated and treated ex-vivo or not with 15 μg/mL of LPS-B5 for 3 or 6 hours and secreted cytokines were measured.
Mice were randomized into groups of five animals to receive the treatments. Mice were injected intra venous (i.v.) with plitidepsin (1 mg/kg) and 12 hours after administration were euthanised. Control group received plitidepsin vehicle diluted with saline (Cremophor/Ethanol/Water). Bronchoalveolar lavage fluid (BAL) of each group was collected and centrifugated to obtain bronchoalveolar lavage cells. Cells underwent red blood cell lysis (Roche) and were plated and treated ex-vivo or not with 15 μg/mL of LPS-B5 for 3 or 6 hours. Secreted cytokines were measured using highly specific and sensitive ELISA kits. Mouse IL-6, mouse IL-10 and mouse TNF DuoSet ELISA kits were obtained from R&D Systems and performed as described by the manufacturer.

[2] = test system: THP-1 human monocytic cells; test: MTT cell proliferation assay (compound-induced cytotoxicity); settings: activators combined with 100 nM plitidepsin, 6 hours
Description: To that end, we took advantage of THP-1 cells stably transfected with an NFκB luciferase reporter plasmid. We treated the cells with 100 ng/mL TNFα (an activator of NF-κB), 500 μg/mL poly I:C (TLR3 ligand), 10 μg/mL LPS-B5 (TLR4 ligand) or 10 g/mL Resiquimod (TLR-7/8 ligand). The compounds were used either alone (FIG. 1A grey bars) or combined with 100 nM of plitidepsin (FIG. 1A black bars) for 6 hours, and quantified the luciferase activity under each condition. […] Survival was analysed with the MTT assay (FIG. 1B grey bars (activators) and red bars (activators combined with 100 nM of plitidepsin)).
NF-κB transactivation was assayed using the Bright-Glo™ Luciferase Assay System following the manufacturer's instructions. […] Luminescence was measured in a Perkin-Elmer EnVision reader. […] Cell survival was expressed as percentage of control cell growth. […]
Cells were seeded in 96 well microtiter plates and allowed to stand for 24 hours at 37° C. and 5% CO2 before treatment described above. After 6 hours of continuous treatment, cellular viability was estimated from conversion of MTT to its coloured reaction product, MTT formazan, which was dissolved to measure its absorbance at 540 nm. […]

Huh7 cells = test: Cell biomass (DAPI) in Huh7 cells; format: cell-based, human; settings: 48 hours
Description: (§1) Relative infection efficiency was assessed by automated fluorescence microscopy in the green channel and overall cell biomass/well was estimated by nuclear staining with DAPI in the blue channel, as a preliminary assessment of the compound effective doses as well as overall compound cytotoxicity.
(§2) Infection experiments: Cells were seeded onto 96-well plates (2×10^4 cells/well). The day after, serial 5-fold dilutions of plitidepsin were prepared in 2% FCS-containing complete media to achieve the indicated final concentrations. WNV-GFP stock was diluted in complete media containing 2% FCS to achieve the required multiplicity of infection (MOI 0.01). Compound and virus dilutions were mixed 1:1 and added onto the target cells. Cells were incubated for 48 hours at 37° C.; 5% CO2 and 95% humidity.
(§3) Cells were fixed by addition of a 5× formaldehyde solution to achieve a 4% final concentration for 30 mins at room temperature. Cells were washed with PBS and stained with DAPI (4′,6-diamidino-2-phenylindole) following manufacturer's recommendations. Relative infection efficiency was estimated by image analysis in an automated microscopy device (Tecan Spark Cyto). Uninfected cells and vehicle-treated controls were included in each plate.

[3] = test system: IL-1, IL-6, IL-8 and TNFα secretion; test: ELISA assays for secreted cytokines in THP-1 cells; format: cell-based, human; settings: 100 nM plitidepsin, 6 hours, TLR ligands
Description: To investigate whether plitidepsin inhibits the TLR-trigged cytokine secretion, we treated THP-1 cells with 100 ng/mL TNFα (an activator of NF-κB), 500 μg/mL poly I:C (TLR3 ligand), 10 g/mL LPS-B5 (TLR4 ligand) or 10 g/mL Resiquimod (TLR-7/8 ligand). The compounds were used either alone (grey bars) or combined with 100 nM of plitidepsin (red bars) for 6 hours. We compared the variations in cytokine secretion in the cell culture supernatants between the different treatments by ELISA assays.
THP1-NFκB-LUC cell cultures were treated as described above, and the culture medium was sampled at 6 hours post-treatment to assay for secreted cytokines by ELISA. Media samples were stored at 4° C. IL-8, IL-1β, IL-6 and TNF□ protein secretion into culture medium was quantitated using highly specific and sensitive ELISA kits. Human IL-1b, human IL-6, human IL-8 and human TNF OptEIA™ ELISA kits were obtained from BD Biosciences and performed as described by the manufacturer. The data presented are the average of three independent experiments performed in triplicate.

WNV-NY99 (lineage 1) [4] = test: Intracellular WNV RNA load by RT-qPCR, Vero-E6 cells; format: cell-based, West Nile virus; settings: 48 hours
WNV-NY99 (lineage 1) [5] = test: Intracellular WNV RNA load by RT-qPCR, Huh-7 cells; format: cell-based, West Nile virus; settings: 48 hours
NF-κB = NF-κB transactivation luciferase assay in THP-1 cells; format: cell-based, human; settings: THP-1 NF-κB-Luc cells, 100 nM plitidepsin, 6 hours, with poly I:C, LPS-B5 or Resiquimod
Description: To that end, we took advantage of THP-1 cells stably transfected with an NFκB luciferase reporter plasmid. We treated the cells with 100 ng/mL TNFα (an activator of NF-κB), 500 μg/mL poly I:C (TLR3 ligand), 10 μg/mL LPS-B5 (TLR4 ligand) or 10 g/mL Resiquimod (TLR-7/8 ligand). The compounds were used either alone (FIG. 1A grey bars) or combined with 100 nM of plitidepsin (FIG. 1A black bars) for 6 hours, and quantified the luciferase activity under each condition.
NF-κB transactivation was assayed using the Bright-Glo™ Luciferase Assay System following the manufacturer's instructions. The NF-κB reporter (Luc)-THP-1 human monocytic, cells stably transfected with NF-κB-Luc plasmid (containing four NF-κB binding sites, a minimal promoter and a luciferase gene), were exposed to 100 ng/mL TNFα (positive control), 500 μg/mL poly (I:C) (Polyinosinic-polycytidylic), 10 μg/mL LPS-B5 (Lipopolysaccharide from Escherichia coli 055:B5) or 10 g/mL Resiquimod. The compounds were used either alone or combined with 100 nM plitidepsin for 6 hours. Luminescence was measured in a Perkin-Elmer EnVision reader. A MTT (3-(4,5-dimethylthiazol-2-yl)-2,5-diphenyltetrazolium bromide) cell proliferation assay was simultaneously performed to control the cytotoxicity of the compounds. Cell survival was expressed as percentage of control cell growth. […]

WNV-NY99 (lineage 1) [6] = test: WNV/NY99 extracellular infectivity titers, Huh-7 cells; format: cell-based, West Nile virus; settings: 45 nM, MOI 0.01, 48 hours
[7] = test system: WNV-GFP (lineage 2; molecular clone WN956)
TNFα = test: Resiquimod-triggered TNFα secretion in BALF of mice; format: in vivo; settings: mice 1 mg/kg i.v. 1 hour before 50 μg/mouse intranasal RQ; 1 or 3 hours
[8] = test system: WNV-GFP (lineage 2; molecular clone WN956); test: WNV-GFP infection efficiency in Huh7 cells; format: cell-based, West Nile virus
THP-1 cells = test: Cell viability after plitidepsin pre-treatment and Resiquimod stimulus; format: cell-based, human; settings: 1, 10 or 50 nM, Resiquimod 2.5 or 5 μg/mL, 24 hours
Description: (§4) In a further in vitro experiment, the effect of plitidepsin (APL) pre-treatment on THP-1 cells was studied. Using a THP-1 NFκB luc line, 1, 10 or 50 nM of APL or DMSO (0.2%) was added 8 hours before stimulus with Resiquimod (RQ) at 2.5 or 5 μg/mL. RQ is a TLR7/8 agonist and mimics ssRNA. At 24 hours the level of cytokines or cell viability was measured.

WNV-NY99 (lineage 1) [9] = test: WNV/NY99 extracellular infectivity titers, Vero-E6 cells; format: cell-based, West Nile virus; settings: VeroE6 cells, 45 nM, MOI 0.01, 48 hours
alveolar macrophages = test: Alveolar macrophage recruitment in mice (LPS inflammation model, flow cytometry); settings: for macrophages in bronchoalveolar lavage: single iv administration
Source text: Also we checked the effect of plitidepsin on alveolar macrophage recruitment. Viral infection also leads to the activation of macrophages. Activated macrophages are twice the size of resting macrophages and are more “aggressive”, having increased levels of lysosomal proteins and a greater ability to phagocytose. Classically activated macrophages also release proteases, neutrophil chemotactic factors, reactive oxygen species and pro-inflammatory cytokines (such as IL-1 beta/IL-1F2, IL-6, and TNF-alpha/TNFSF1A), leading to inflammation and tissue destruction. Bronchoalveolar lavage cells were stained and analyced by flow cytometry.
To investigate whether plitidepsin decreases the percentage of alveolar macrophage in animals with acute inflammation, we treated mice with plitidepsin (1 mg/kg) i.v., with LPS (20 μg/kg) i.p. in sterile saline or with plitidepsin (1 mg/kg; i.v.) in combination with LPS (20 μg/kg, i.p.). Three hours later, bronchoalveolar lavages were collected. Bronchoalveolar lavage cells were obtained by centrifugation and analyzed by flow cytometry (FIG. 4b). Upper panels show the strategy of analysis of macrophage population present in the samples. Lower right panel show the same result expressed as percentage of cells. Lower left panel show the percentage of CD45+(leucocyte marker) alive cells.
Bronchoalveolar lavage cells were obtained by centrifugation and analyzed by flow cytometry.
Bronchoalveolar lavage cells were stained with anti-F4/80-BV510, CD45-APC700, CD11b-BV650, CD11c-APC-Fire, CD24-PC7 and Ly6C-BV605 monoclonal antibodies (Biolegend) and a LIVE/DEAD™ Fixable Green Dead Cell Stain Kit, for 488 nm excitation (Thermofisher). Macrophages (F4/80+) were gated on alive immune cells (CD45+ LIVE/DEAD dye−), while alveolar macrophages (F4/80+CD24−) were specifically gated on CD11c+CD11b− population from alive immune cells. Isotype controls and compensation beads were used to set compensations and gating strategies.

[10] = test system: IL6, IL8, IL1β and TNF-α secretion; test: Plitidepsin pre-treatment of THP-1 cells before Resiquimod stimulus, cytokine secretion; format: cell-based, human; settings: 1, 10 or 50 nM added 8 hours before Resiquimod 2.5 or 5 μg/mL; read at 24 hours
Description: as §4

VeroE6 cells = test: Cell biomass (DAPI) in VeroE6 cells; format: cell-based, African green monkey; settings: 48 hours
Description: as §1, §2, §3

[11] = Plasma pharmacokinetics in mouse (Table 1); format: in vivo; settings: Mouse (F) C57BL6/J, 1.0 mg/kg single intravenous bolus

**Q.** With “(−)-(3S,6R,7S,10R,11S,15S,17S,20S,25aS)-11-hydroxy-3-(4-methoxybenzyl)-2,6,17-trimethyl-15-(1-methylethyl)-7-[[(2R)-4-methyl-2-[methyl[[(2S)-1-(2-oxopropanoyl)pyrrolidin-2-yl]carbonyl]amino]pentanoyl]amino]-10-[(1S)-1-methylpropyl]-20-(2-methylpropyl)tetradecahydro-15H-pyrrolo[2,1-f]-[1,15,4,7,10,20]dioxatetrazacyclotricosine-1,4,8,13,16,18,21(17H)-heptone [PLD]” as the substance, how does the “production of IL-6 and TNF-α induced by LPS” value ([1]; mice 1 mg/kg i.v., BAL at 12 hours, cells treated ex vivo with 15 μg/mL LPS-B5 for 3 or 6 hours) read?
**A.** clearly inhibited the production of pro-inflammatory cytokines IL-6, and TNF-α

**Q.** And the “secretion of IL-6, IL-10 and TNFα induced by LPS-B5 in CD45+ cells from broncho-alveolar lavages” value ([1]; treated animals, 3 and 6 hours)?
**A.** significantly reduce the secretion of IL-6, IL-10 and TNFα

**Q.** What about the “cytotoxic effect (survival, MTT assay)” value [2] of the same substance?
**A.** No cytotoxic effect was detected

**Q.** And the CC50 (Huh7 cells)?
**A.** 14.7 nM

**Q.** And the “concentration at which loss of cell biomass is statistically significant (p<0.05)” value (Huh7 cells)?
**A.** 7.2 nM

**Q.** What about the “production of IL-1, IL-6, IL-8 and TNFα (ELISA)” value [3] of the same substance?
**A.** clearly inhibited the production of IL-1, IL-6, IL-8 and TNFα

**Q.** And the “intracellular viral RNA load” value (WNV-NY99 (lineage 1) [4]; 5 and 1.5 nM)?
**A.** not distinguishable from those in the control

**Q.** And the “intracellular viral RNA load” value (WNV-NY99 (lineage 1) [4]; 15 and 45 nM)?
**A.** significantly decreased in a dose-dependent manner

**Q.** What about the “intracellular viral RNA load” value (WNV-NY99 (lineage 1) [5]; 15 nM) of the same substance?
**A.** marked reduction in viral load

**Q.** And the “RNA recovery from cells” value (WNV-NY99 (lineage 1) [5]; 45 nM)?
**A.** no RNA could be recovered

**Q.** What about the “NF-κB transactivation (production of luciferase)” value (NF-κB) of the same substance?
**A.** clearly inhibited the production of luciferase

**Q.** What about the “reduction of extracellular infectivity titers” value (WNV-NY99 (lineage 1) [6]) of the same substance?
**A.** > 3 orders of magnitude

**Q.** What about the “concentration with antiviral activity in the absence of measurable interference with cell viability (p<0.05)” value ([7]; Vero-E6 cells) of the same substance?
**A.** 7.2 nM

**Q.** And the “therapeutic index (ratio CC50/EC50)” value ([7]; VeroE6 cells)?
**A.** 475

**Q.** And the “concentration at which infection efficiency reaches background fluorescence levels” value ([7]; VeroE6 cells, 48 hours)?
**A.** ≥ 36 nM

**Q.** What about the EC50 ([7]; read-out: EC50, WNV-GFP infection efficiency, VeroE6 cells, MOI 0.01, 48 hours) of the same substance?
**A.** 4.9 nM

**Q.** What about the EC90 ([7]; read-out: EC90, WNV-GFP infection efficiency, VeroE6 cells, MOI 0.01, 48 hours) of the same substance?
**A.** 9.5 nM

**Q.** And the “production of TNFα induced by Resiquimod in BALF” value (TNFα)?
**A.** prevented the increased production of TNFα

**Q.** And the EC50 ([8]; Huh7 cells, MOI 0.01, 48 hours)?
**A.** 0.665 nM

**Q.** What about the EC90 ([8]; Huh7 cells, MOI 0.01, 48 hours) of the same substance?
**A.** 3.86 nM

**Q.** What about the “concentration with antiviral activity in the absence of measurable interference with cell viability (p<0.05)” value ([8]; Huh-7 cells) of the same substance?
**A.** 1.5 nM

**Q.** What about the “cell viability over the untreated control” value (THP-1 cells) of the same substance?
**A.** does not decrease viability over the untreated control

**Q.** And the “reduction of extracellular infectivity titers” value (WNV-NY99 (lineage 1) [9])?
**A.** > 3 orders of magnitude

**Q.** What about the “cytotoxic effects on bronchoalveolar lavage cells” value (alveolar macrophages; 1 mg/kg i.v.) of the same substance?
**A.** without cytotoxic effects

**Q.** And the “percentage of macrophages present on bronchoalveolar lavage” value (alveolar macrophages; plitidepsin 1 mg/kg i.v. with LPS 20 μg/kg i.p., 3 hours)?
**A.** decrease the percentage of macrophages

**Q.** And the “macrophages in bronchoalveolar lavage” value (alveolar macrophages)?
**A.** reduces the number of macrophages in BAL

**Q.** What about the “macrophages in bronchoalveolar lavage” value (alveolar macrophages; listed as Plitidepsin) of the same substance?
**A.** decreased the percentage of macrophages

**Q.** And the “secretion of IL6, IL8, IL1β and TNF-α induced by RQ” value [10]?
**A.** inhibited secretion of the pro-inflammatory cytokines: IL6, IL8, IL1β and TNF-α

**Q.** And the “concentration at which cell number significantly decreased (p<0.05)” value (VeroE6 cells)?
**A.** 180 nM

**Q.** And the “concentration up to which cell number remained unchanged” value (VeroE6 cells)?
**A.** up to 36 nM

**Q.** And the CC50 (VeroE6 cells; read-out: CC50 based on the cell biomass)?
**A.** 2330 nM

**Q.** And the Cl [11]?
**A.** 73.3 mL/min/kg
